Laboratory results from PubChem BioAssay AID190 (DTP/NCI, 2004).
Values joined by “and” are separate entries in the source; they are usually repeats but may differ in a detail not shown here. Identical values can stand only once. Toxic doses and inconclusive results are not listed.

Tested on: AKR/Lw mice, AKR lymphoma ip, median survival T/C
Experiment: NCI In Vivo Anticancer Drug Screen. Data for tumor model Lymphoma AKR (Transplanted) (intraperitoneal) in AKR/Lw mice
Conditions: endpoint: median survival time, higher = longer survival
Experimental: The antitumor activity of compounds was measured in mice bearing transplantable tumors. Survival or tumor size were measured and the results are expressed as the measurement made in the treated group (T) divided by the measurement made in the vehicle treated control group (C). The tumor model used in this assay is Lymphoma AKR (Transplanted) (intraperitoneal) in AKR/Lw mice

[1] = dose: 100.0 mg/kg/injection, schedule: Q01DX001 (ip), vehicle: Klucel (hydroxypropylcellulose) (HPC)
[2] = dose: 100.0 mg/kg/injection, schedule: Q04DX003 (ip), vehicle: Klucel (hydroxypropylcellulose) (HPC)
[3] = dose: 400.0 mg/kg/injection, schedule: Q01DX001 (ip), vehicle: Klucel (hydroxypropylcellulose) (HPC)
[4] = dose: 100.0 mg/kg/injection, schedule: Q01DX001 (ip), vehicle: saline
[5] = dose: 200.0 mg/kg/injection, schedule: Q01DX001 (ip), vehicle: saline
[6] = dose: 400.0 mg/kg/injection, schedule: Q01DX001 (ip), vehicle: saline
[7] = dose: 200.0 mg/kg/injection, schedule: Q01DX001 (ip), vehicle: Klucel (hydroxypropylcellulose) (HPC)
[8] = dose: 200.0 mg/kg/injection, schedule: Q04DX003 (ip), vehicle: Klucel (hydroxypropylcellulose) (HPC)
[9] = dose: 400.0 mg/kg/injection, schedule: Q04DX003 (ip), vehicle: Klucel (hydroxypropylcellulose) (HPC)
[10] = dose: 25.0 mg/kg/injection, schedule: Q01DX001 (ip), vehicle: saline
[11] = dose: 25.0 mg/kg/injection, schedule: Q04DX003 (ip), vehicle: saline
[12] = dose: 50.0 mg/kg/injection, schedule: Q04DX003 (ip), vehicle: saline

SMILES: COc1ccc(CCNC(=S)NCCc2ccc(OC)c(OC)c2)cc1OC
- T/C (dose: 25.0 mg/kg/injection, schedule: Q04DX003 (ip), vehicle: Klucel (hydroxypropylcellulose) (HPC)): 94 % of control
- T/C (dose: 50.0 mg/kg/injection, schedule: Q04DX003 (ip), vehicle: Klucel (hydroxypropylcellulose) (HPC)): 105 % of control
- T/C [1]: 88 % of control
- T/C [2]: 100 % of control
- T/C [3]: 86 % of control

SMILES: c1ccc2c(c1)CNC2
- T/C [4]: 97 % of control
- T/C [5]: 123 % of control
- T/C [6]: 111 % of control

SMILES: O=C1CCSCCN1
- T/C [4]: 95 % of control
- T/C [5]: 86 % of control

SMILES: CCN(CC)C(N)=S
- T/C [1]: 105 % of control
- T/C [2]: 100 % of control
- T/C [7]: 105 % of control
- T/C [8]: 103 % of control
- T/C [3]: 110 % of control
- T/C [9]: 107 % of control

SMILES: COc1ccccc1N1C(N)=NC(N)=NC1(C)C
- T/C (dose: 11.0 mg/kg/injection, schedule: Q01DX001 (ip), vehicle: saline): 109 % of control
- T/C (dose: 11.0 mg/kg/injection, schedule: Q04DX003 (ip), vehicle: saline): 91 % of control
- T/C (dose: 16.0 mg/kg/injection, schedule: Q01DX001 (ip), vehicle: saline): 88 % of control
- T/C [10]: 113 % of control
- T/C [11]: 102 % of control
- T/C (dose: 37.5 mg/kg/injection, schedule: Q01DX001 (ip), vehicle: saline): 102 % of control
- T/C (dose: 37.5 mg/kg/injection, schedule: Q04DX003 (ip), vehicle: saline): 88 % of control
- T/C [4]: 90 % of control

SMILES: CCCCCCCCC(=O)N1CC(C)OC(C)C1 (centres undefined)
- T/C [4]: 100 % of control
- T/C [5]: 94 % of control
- T/C [6]: 100 % of control

SMILES: N#CCCNc1ccc(NC(=O)C(F)(F)F)cc1
- T/C (dose: 25.0 mg/kg/injection, schedule: Q01DX009 (ip), vehicle: Klucel (hydroxypropylcellulose) (HPC)): 96 % of control
- T/C (dose: 50.0 mg/kg/injection, schedule: Q01DX009 (ip), vehicle: Klucel (hydroxypropylcellulose) (HPC)): 89 % of control
- T/C (dose: 50.0 mg/kg/injection, schedule: Q04DX003 (ip), vehicle: other): 90 % of control
- T/C [4]: 103 % of control
- T/C (dose: 100.0 mg/kg/injection, schedule: Q04DX003 (ip), vehicle: other): 95 % of control
- T/C [5]: 100 % of control
- T/C (dose: 200.0 mg/kg/injection, schedule: Q04DX003 (ip), vehicle: other): 95 % of control

SMILES: CC[N+]1=NC2CCCC(C2)C1 (centres undefined)
- T/C [4]: 101 % of control
- T/C [5]: 106 % of control

SMILES: NC(=O)C(Br)CBr (centres undefined)
- T/C [11]: 100 % of control
- T/C [12]: 122 % of control
- T/C [4]: 108 % of control
- T/C (dose: 100.0 mg/kg/injection, schedule: Q04DX003 (ip), vehicle: saline): 89 % of control
- T/C [5]: 101 % of control

SMILES: OCC1C(CO)C2(Cl)C(Cl)=C(Cl)C1(Cl)C2(Cl)Cl (centres undefined)
- T/C [1]: 100 % of control
- T/C [7]: 93 % of control
- T/C [3]: 91 % of control

SMILES: COC(=O)C1(C)CSCCC1=O (centres undefined)
- T/C [1]: 91 % of control
- T/C [7]: 105 % of control
- T/C [3]: 96 % of control

SMILES: O=C1CC2CCCC(C1)S2=O (centres undefined)
- T/C [4]: 113 % of control
- T/C [5]: 89 % of control
- T/C [6]: 97 % of control

SMILES: Nc1ccn(C2OC(CO)C(O)C2O)c(=O)n1 (centres undefined)
- T/C (dose: 0.18 mg/kg/injection, schedule: Q01DX009 (ip), vehicle: saline): 87 % of control
- T/C (dose: 0.25 mg/kg/injection, schedule: Q01DX015 (ip), vehicle: saline): 86 % of control
- T/C (dose: 0.37 mg/kg/injection, schedule: Q01DX009 (ip), vehicle: saline): 96 % of control
- T/C (dose: 0.5 mg/kg/injection, schedule: Q01DX015 (ip), vehicle: saline): 93 % of control
- T/C (dose: 0.75 mg/kg/injection, schedule: Q01DX009 (ip), vehicle: saline): 100 % of control
- T/C (dose: 1.0 mg/kg/injection, schedule: Q01DX015 (ip), vehicle: saline): 100 % of control
- T/C (dose: 3.12 mg/kg/injection, schedule: Q04DX003 (ip), vehicle: saline): 94 % of control
- T/C (dose: 5.0 mg/kg/injection, schedule: Q01DX009 (ip), vehicle: saline): 150 % of control
- T/C (dose: 5.0 mg/kg/injection, schedule: Q03HX032 (ip), vehicle: saline): 150 % of control
- T/C (dose: 10.0 mg/kg/injection, schedule: Q03HX032 (ip), vehicle: saline): 150 % of control
- T/C (dose: 12.5 mg/kg/injection, schedule: Q04DX003 (ip), vehicle: saline): 94 % of control
- T/C (dose: 15.0 mg/kg/injection, schedule: Q01DX009 (ip), vehicle: saline with Tween-80): 97 % of control
- T/C (dose: 15.0 mg/kg/injection, schedule: Q04DX003 (ip), vehicle: saline): 120 % of control
- T/C (dose: 18.75 mg/kg/injection, schedule: Q06HX004 (ip), vehicle: saline): 150 % of control
- T/C (dose: 18.75 mg/kg/injection, schedule: Q06HX016 (ip), vehicle: saline): 170 % of control
- T/C (dose: 18.8 mg/kg/injection, schedule: Q04DX003 (ip), vehicle: saline): 87 % of control
- T/C (dose: 19.0 mg/kg/injection, schedule: Q04DX003 (ip), vehicle: saline): 100 % of control
- T/C [10]: 97 % of control
- T/C [11]: 100 % of control
- T/C (dose: 40.0 mg/kg/injection, schedule: Q06HX012 (ip), vehicle: saline): 96 % of control
- T/C (dose: 50.0 mg/kg/injection, schedule: Q01DX001 (ip), vehicle: saline): 94 % of control and 100 % of control
- T/C [12]: 100 % of control
- T/C [4]: 100 % of control
- T/C (dose: 100.0 mg/kg/injection, schedule: Q01DX009 (ip), vehicle: saline): 87 % of control and 96 % of control
- T/C (dose: 150.0 mg/kg/injection, schedule: Q03HX016 (ip), vehicle: saline): 59 % of control
- T/C (dose: 400.0 mg/kg/injection, schedule: Q04DX003 (ip), vehicle: saline): 110 % of control

SMILES: ClC1=C(Cl)C2(Cl)C3(Cl)C(Cl)=C(Cl)C(Cl)(C34OCCO4)C2(Cl)C12OCCO2 (centres undefined)
- T/C [4]: 96 % of control
- T/C [5]: 108 % of control
- T/C [6]: 108 % of control

SMILES: CCOC(=O)N(CC)c1ccccc1
- T/C [1]: 109 % of control
- T/C [2]: 113 % of control
- T/C [7]: 111 % of control
- T/C [8]: 94 % of control
- T/C [3]: 100 % of control
- T/C [9]: 98 % of control

SMILES: CC1NC1(c1ccccc1)[n+]1ccccc1 (centres undefined)
- T/C [5]: 100 % of control

SMILES: COC(=O)Cc1ccc([N+](=O)[O-])cc1[N+](=O)[O-]
- T/C [4]: 94 % of control
- T/C [5]: 94 % of control
- T/C [6]: 97 % of control

SMILES: CN(CCOc1ccccc1O)CCOc1ccccc1O
- T/C [1]: 105 % of control
- T/C [2]: 100 % of control
- T/C [7]: 107 % of control
- T/C [8]: 92 % of control
- T/C [3]: 105 % of control
